Key:
[1] = system: undifferentiated hESCs growing in adherent culture; test: EC50 of cytotoxic effect on undifferentiated hESCs in adherent culture, real-time impedance assay; assay type: cell-based, human; conditions: undifferentiated hESCs, adherent culture, real-time impedance; read-out: EC50 concentrations for hES cells (cytotoxic effect)
Experimental: In summary, the final three (3) candidates identified from both the primary and secondary screens (EXAMPLE 1) and the full screen of the LOPAC1280™ collection (EXAMPLE 2) were Chelerythrine Chloride, Caffeic acid and Ivermectin. FIG. 11 lists the known or inferred mode(s) of action for these three compounds, as well as their structures. EC50 values for the respective cytotoxic effects on undifferentiated hESCs growing in adherent culture were determined using real-time impedance assays.
Depletion of OCT4-positive cells during Stage 1 differentiation was examined using the plating assay described above. Stage 1 differentiations of hES cells were treated from day 1 to 2 with the candidate compounds as described in Example 2 (chelerythrine chloride, caffeic acid and Ivermectin), at their EC50 concentrations for hES cells. Plated untreated and DMSO-treated aggregates were indistinguishable, and both contained discrete clusters of OCT4-positive cells. See FIG. 13A top and bottom panels for a DMSO treated example. The intensity of OCT4-positive staining in differentiating aggregate cell cultures treated with DMSO (control) was equivalent to undifferentiated hES cells.

[2] = system: pancreatic endoderm differentiations of hESCs; test: Suspension aggregate differentiation to pancreatic endoderm after Stage 1 treatment, Q-PCR; assay type: cell-based, human; conditions: Stage 1 cultures treated with 0.1 μM Caffeic acid or 0.17 μM Ivermectin
Experimental: FIGS. 10A-10I are bar graphs showing the relative gene expression levels of OCT4 (FIG. 10A), MIXL (FIG. 10B), HNF1B (FIG. 10C), HNF4A (FIG. 10D), PAX4 (FIG. 10E), NGN3 (FIG. 10F), NKX2.2 (FIG. 10G), NKX6.1 (FIG. 10H), and PTF1A (FIG. 10I) after treatment of suspension aggregate cell cultures at Stages 1 with DMSO (Control), 0.1 μM Caffeic acid or 0.17 μM Ivermectin agents. Untreated control samples were collected at d0 and d1 (left panel). Treated samples were collected at d2, d3, d5, d7, d9, d11, and d13. The columns for each day of the treated samples are (from left to right): DMSO, Caffeic acid, and Ivermectin. The cultures were differentiated to the end of Stage 4. The results from an untreated, pancreatic endoderm differentiation are shown on the right, with samples collected on days 0, 1, 2, 5, 8, 10 and 14.
To further determine the effects of the above compounds (excluding those compounds that induced off-target differentiation), three selected compounds (chelerythrine chloride (FIGS. 5 & 6), caffeic acid and Ivermectin) were screened for effects on later stages of pancreatic differentiation, (such as Stages 2-5). Human ESCs were first differentiated through Stage 1 then to Stages 2 to 5 in suspension aggregate cultures similar to that above. Stage 1 cultures were treated with DMSO, caffeic acid or Ivermectin substantially as described above. Untreated control samples were collected at d0 (hESC) and d1 (FIG. 10, left panel), while treated samples were collected at days 2, 3, 5, 7, 9, 11 and 13 (FIG. 10 d2, d3, d5, d7, d9, d11 and d13 respectively). Gene expression levels in the collected samples were analyzed using Q-PCR and compared to the d0 (hESC) sample as well as qualified pancreatic endoderm (FIG. 10, right panel). The qualified pancreatic endoderm control consisted of about 50% pancreatic endoderm, about 46% endocrine cells and about 4% “other” cells as determined by flow cytometry. Neither caffeic acid nor Ivermectin affected survival, growth and/or proliferation of pancreatic endoderm differentiations. […] Typical gene expression levels for Stages 3, 4 and 5 cells were normal; for example, increased expression of NKX6.1 and PTF1A at Stage 4, pancreatic endoderm (FIGS. 10H and 10I), and of NGN3 and NKX2.2 at Stage 5, endocrine precursor and endocrine cells (FIGS. 10 F and 10G) was observed.

“22, 23-dihydroavermectin B1a+22,23-dihydroavermectin B1b [Ivermectin]” was tested, and the EC50 [1] was 170 nM, the “Typical gene expression levels for Stages 3, 4 and 5 cells (NKX6.1, PTF1A, NGN3, NKX2.2)” value ([2]; Q-PCR d2-d13) was “normal” and the “survival, growth and/or proliferation of pancreatic endoderm differentiations (pancreatic endoderm viability)” value ([2]; differentiated to end of Stage 4) was “did not affect pancreatic endoderm viability”.
